Laboratory results published in ChEMBL document CHEMBL4725321, “Study on antitumor activities of the chrysin-chromene-spirooxindole on Lewis lung carcinoma C57BL/6 mice in vivo” (Bioorg Med Chem Lett, 2020).
Active and inactive are the calls of the source. The rule behind the calls is not given here.

Columns and labels:
[1] = Antitumor activity against mouse LLC allografted in C57BL/6 mouse assessed as tumor weight at 200 mg/kg, ip administered once every other day (reference value: 2.74 +/- 0.29 g); assay type: functional, Lewis lung carcinoma
[2] = Upregulation of p53 protein expression in […] LLC allografted C57BL/6 mouse at 400 mg/kg, ip administered once every other day by Western blot analysis relative to control; assay type: functional
[3] = Toxicity in C57BL/6 mouse assessed as increase in body weight at 100 to 200 mg/kg, ip measured up to 15 days; assay type: organism-based; settings: in vivo, 360 h, dose 100-200 mg/kg, time <=15 day
[4] = system: Lewis lung carcinoma; test: Antitumor activity against mouse LLC allografted in ip dosed C57BL/6 mouse assessed as induction of apoptosis by measuring nuclear contraction administered every other day by H and E staining based analysis; assay type: functional, organism-based; settings: dose mg/kg 100-400
[5] = system: Lewis lung carcinoma; test: Antitumor activity against mouse LLC allografted in ip dosed C57BL/6 mouse assessed as induction of apoptosis by measuring increase in cell debris content in tumor administered every other day by H and E staining based analysis; assay type: functional, organism-based; settings: dose mg/kg 100-400
[6] = system: Lewis lung carcinoma; test: Antitumor activity against mouse LLC allografted in ip dosed C57BL/6 mouse assessed as reduction in bcl2 expression administered once every other day by Western blot analysis; assay type: functional, organism-based; settings: dose mg/kg 100-400
[7] = system: Mus musculus; test: Down regulation of VEGF protein expression in mouse LLC allografted C57BL/6 mouse at 100 mg/kg, ip by Western blot analysis; assay type: functional, organism-based
[8] = system: Lewis lung carcinoma; test: Antitumor activity against mouse LLC allografted in C57BL/6 mouse assessed as effect on Cyt C protein expression in tumor at 100 to 200 mg/kg, ip administered once every other day by Western blot analysis; assay type: functional, organism-based; settings: dose mg/kg 100-200
[9] = Antitumor activity against mouse LLC allografted in C57BL/6 mouse assessed as bax/bcl2 ratio at 400 mg/kg, ip administered once every other day by Western blot analysis; assay type: functional, Lewis lung carcinoma
[10] = Antitumor activity against mouse LLC allografted in C57BL/6 mouse assessed as tumor weight at 400 mg/kg, ip administered once every other day (reference value: 2.74 +/- 0.29 g); assay type: functional, Lewis lung carcinoma
[11] = system: Lewis lung carcinoma; test: Antitumor activity against mouse LLC allografted in C57BL/6 mouse assessed as reduction in tumor weight at 400 mg/kg, ip administered once every other day; assay type: functional, organism-based
[12] = system: Mus musculus; test: Down regulation of MMP2 protein expression in mouse LLC allografted C57BL/6 mouse at 200 mg/kg, ip by Western blot analysis; assay type: functional, organism-based
[13] = system: Lewis lung carcinoma; test: Antitumor activity against mouse LLC allografted in C57BL/6 mouse assessed as inhibition of tumor growth at 400 mg/kg, ip measured after 7 days; assay type: functional, organism-based; settings: time 7.0 day
[14] = system: Mus musculus; test: Down regulation of VEGF protein expression in mouse LLC allografted C57BL/6 mouse at 200 to 400 mg/kg, ip by Western blot analysis; assay type: functional, organism-based; settings: dose mg/kg 200-400
[15] = Toxicity in C57BL/6 mouse assessed as effect on body weight at 100 to 400 mg/kg, ip measured on day 3; assay type: organism-based; settings: in vivo, 72 h, dose 100-400 mg/kg, time 3 day
[16] = system: Lewis lung carcinoma; test: Antitumor activity against mouse LLC allografted in ip dosed C57BL/6 mouse assessed as increase in bax expression administered once every other day by Western blot analysis; assay type: functional, organism-based; settings: dose mg/kg 100-400
[17] = Toxicity in C57BL/6 mouse assessed as increase in body weight at 400 mg/kg, ip measured up to 15 days; assay type: organism-based; settings: in vivo, 360 h, time <=15 day
[18] = system: Lewis lung carcinoma; test: Antitumor activity against mouse LLC allografted in ip dosed C57BL/6 mouse assessed as reduction in tumor growth administered once every other day; assay type: functional, organism-based; settings: dose mg/kg 100-400
[19] = system: Lewis lung carcinoma; test: Antitumor activity against mouse LLC allografted in C57BL/6 mouse assessed as Cyt C protein expression level in tumor at 400 mg/kg, ip administered once every other day by Western blot analysis relative to control; assay type: functional, organism-based
[20] = Antitumor activity against mouse LLC allografted in C57BL/6 mouse assessed as bax/bcl2 ratio at 200 mg/kg, ip administered once every other day by Western blot analysis; assay type: functional, Lewis lung carcinoma
[21] = In vivo activation of p53 in mouse LLC allografted C57BL/6 mouse assessed as reduction in 5-lox protein expression in tumor at 400 mg/kg, ip administered once every other day by Western blot analysis relative to control; assay type: functional
[22] = system: Lewis lung carcinoma; test: Antitumor activity against mouse LLC allografted in ip dosed C57BL/6 mouse assessed as reduction in tumor volume measured after 7 days; assay type: functional, organism-based; settings: dose mg/kg 100-400, time 7.0 day
[23] = Antitumor activity against mouse LLC allografted in C57BL/6 mouse assessed as tumor growth inhibition at 400 mg/kg, ip administered once every other day relative to control; assay type: functional; settings: Lewis lung carcinoma, read-out: TGI
[24] = In vivo activation of p53 in mouse LLC allografted C57BL/6 mouse assessed as reduction in Akt protein expression in tumor at 200 mg/kg, ip administered once every other day by Western blot analysis relative to control; assay type: functional
[25] = Antitumor activity against mouse LLC allografted in C57BL/6 mouse assessed as bax/bcl2 ratio at 100 mg/kg, ip administered once every other day by Western blot analysis; assay type: functional, Lewis lung carcinoma
[26] = system: Lewis lung carcinoma; test: Antitumor activity against mouse LLC allografted in ip dosed C57BL/6 mouse assessed as induction of apoptosis by measuring reduction in number of tumor cells administered every other day by H and E staining based analysis; assay type: functional, organism-based; settings: dose mg/kg 100-400
[27] = system: Mus musculus; test: Down regulation of ICAM1 protein expression in mouse LLC allografted C57BL/6 mouse at 100 mg/kg, ip by Western blot analysis; assay type: functional, organism-based
[28] = Antitumor activity against mouse LLC allografted in C57BL/6 mouse assessed as tumor growth inhibition at 100 mg/kg, ip administered once every other day relative to control; assay type: functional; settings: Lewis lung carcinoma, read-out: TGI
[29] = system: Lewis lung carcinoma; test: Antitumor activity against mouse LLC allografted in ip dosed C57BL/6 mouse assessed as induction of apoptosis by measuring increase in apoptotic bodies in tumor administered every other day by H and E staining based analysis; assay type: functional, organism-based; settings: dose mg/kg 100-400
[30] = Antitumor activity against mouse LLC allografted in C57BL/6 mouse assessed as tumor weight at 100 mg/kg, ip administered once every other day (reference value: 2.74 +/- 0.29 g); assay type: functional, Lewis lung carcinoma
[31] = Antitumor activity against mouse LLC allografted in C57BL/6 mouse assessed as tumor growth inhibition at 200 mg/kg, ip administered once every other day relative to control; assay type: functional; settings: Lewis lung carcinoma, read-out: TGI
[32] = molecular target: E3 ubiquitin-protein ligase Mdm2 (Mus musculus) (UniProt P23804); test: In vivo activation of p53 in mouse LLC allografted C57BL/6 mouse assessed as reduction in MDM2 protein expression in tumor at 100 to 400 mg/kg, ip administered once every other day by Western blot analysis; assay type: functional, organism-based; settings: dose mg/kg 100-400
E3 ubiquitin-protein ligase Mdm2 (Mus musculus), sequence (P23804 whole entry): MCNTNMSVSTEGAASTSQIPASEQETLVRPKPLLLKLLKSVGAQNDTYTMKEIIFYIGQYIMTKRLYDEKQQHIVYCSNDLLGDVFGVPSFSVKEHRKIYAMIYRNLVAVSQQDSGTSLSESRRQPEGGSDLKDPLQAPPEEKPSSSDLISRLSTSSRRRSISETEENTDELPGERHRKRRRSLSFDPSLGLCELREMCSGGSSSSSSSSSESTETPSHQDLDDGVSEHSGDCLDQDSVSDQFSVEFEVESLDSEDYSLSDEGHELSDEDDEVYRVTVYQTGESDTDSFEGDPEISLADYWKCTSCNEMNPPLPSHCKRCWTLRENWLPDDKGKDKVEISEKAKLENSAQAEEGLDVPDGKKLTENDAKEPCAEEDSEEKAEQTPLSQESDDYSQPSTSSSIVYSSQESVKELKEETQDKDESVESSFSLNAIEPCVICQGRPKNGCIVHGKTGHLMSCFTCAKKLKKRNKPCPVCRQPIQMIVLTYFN

**Q.** What does the source list for `CN1C(=O)C2(C(C#N)=C(N)Oc3cc4oc(-c5ccccc5)cc(=O)c4c(O)c32)c2cc(Br)ccc21` (configuration not stated)?
**A.** Activity [1]: 2.15 g; fold change (FC) [2]: 2.86; Activity [3]: Toxic; Activity [4]: Dose-dependent effect; Activity [5]: Dose-dependent effect; Activity [6]: Dose-dependent effect; Activity [7]: inactive; Activity [8]: inactive; Ratio [9]: 4.13; Activity [10]: 1.18 g; Activity [11]: Active; Activity [12]: Active; TGI [13]: Active; Activity [14]: Active; Activity [15]: Non-Toxic; Activity [16]: Dose-dependent effect; Activity [17]: Non-Toxic; Activity [18]: Dose-dependent effect; Activity [19]: Active; Ratio [20]: 2.23; fold change (FC) [21]: 0.4; Activity [22]: Dose-dependent effect; inhibition in vivo at 400 mg/kg [23]: 56.9%; fold change (FC) [24]: 0.59; Ratio [25]: 1.29; Activity [26]: Dose-dependent effect; Activity [27]: Active; inhibition in vivo at 100 mg/kg [28]: 7.45%; Activity [29]: Dose-dependent effect; Activity [30]: 2.51 g; inhibition in vivo at 200 mg/kg [31]: 20%; Activity [32]: Active
